Earlier results as cited in patent US20240108699A1 (priority 2022, published 2024).

Conditions: in vivo

Botulinum toxin complex A [BoNT-A]
time for which effects are maintained: three to six
